According to ChEMBL document CHEMBL4725482, “In Silico-Guided Identification of New Potent Inhibitors of Carbonic Anhydrases Expressed in Vibrio cholerae” (ACS Med Chem Lett, 2020):

Assays:
[1] = biological target: Carbonic anhydrase 2 (Homo sapiens, UniProt P00918)
[2] = biological target: Carbonic anhydrase 1 (Homo sapiens, UniProt P00915)
Sequence of Carbonic anhydrase 1 (P00915 whole entry): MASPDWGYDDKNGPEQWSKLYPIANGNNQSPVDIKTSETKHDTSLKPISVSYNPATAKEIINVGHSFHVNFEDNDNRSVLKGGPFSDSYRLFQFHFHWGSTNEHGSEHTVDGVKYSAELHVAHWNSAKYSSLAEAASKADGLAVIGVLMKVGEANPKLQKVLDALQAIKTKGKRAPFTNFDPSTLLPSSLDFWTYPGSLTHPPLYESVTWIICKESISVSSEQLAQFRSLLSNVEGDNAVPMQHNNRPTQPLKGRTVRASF

Row | Structure (SMILES) | Ki [1] [nM] | Ki [2] [nM]
1 | NS(=O)(=O)c1ccc(CNC(=O)c2cc(Cl)ccc2Cl)cc1 | 31.6 | 77.8
2 | NS(=O)(=O)c1ccc(CNC(=O)c2ccc(Br)cc2)cc1 | 63 | 95
3 | Cc1cccc(C(=O)NCc2ccc(S(N)(=O)=O)cc2)c1 | 3.3 | 60.7
4 | NS(=O)(=O)c1ccc(CNC(=O)c2ccsc2)cc1 | 83.8 | 44.2
5 | NS(=O)(=O)c1ccc(CNC(=O)Cc2ccccc2F)cc1 | 26.3 | 269
6 | NS(=O)(=O)c1ccc(CNC(=O)c2ccc(-c3ccccc3)cc2)cc1 | 920 | 2110
7 | CSCCC(=O)NCc1ccc(S(N)(=O)=O)cc1 | 69.5 | 572
8 | NS(=O)(=O)c1ccc(CNC(=O)c2cccc(Cl)c2)cc1 | 5.1 | 65.9
9 | NS(=O)(=O)c1ccc(CNC(=O)c2ccccc2Cc2ccccc2)cc1 | 54.4 | 98.3
